Reference: the NIST ThermoML archive (doi:10.1016/j.fluid.2007.07.002)

Assay: xn = mol fraction of the nth substance listed
Settings: 298.15 K, 101 kPa, Liquid

CC(C)CC(C)(C)C [2,2,4-trimethylpentane] + CCCO
Settings	mass density [kg/m3]
x2 = 0.0531	690.2
x2 = 0.098	692.4
x2 = 0.1986	698.3
x2 = 0.2981	705.1
x2 = 0.3987	713.1
x2 = 0.4987	722.3
x2 = 0.5987	732.9
x2 = 0.6994	745.8
x2 = 0.8007	761
x2 = 0.9	779.2
x2 = 0.9499	789.6

C=COCCC [propyl vinyl ether] + CC(C)CC(C)(C)C
Settings	mass density [kg/m3]
x1 = 0.0468	690
x1 = 0.1011	692.6
x1 = 0.1999	697.5
x1 = 0.2997	703
x1 = 0.399	709
x1 = 0.5009	715.9
x1 = 0.6008	723.4
x1 = 0.7005	731.6
x1 = 0.7997	740.8
x1 = 0.8991	751.2
x1 = 0.9507	757.1

C=COCCC [propyl vinyl ether] + CCCO
Settings	mass density [kg/m3]
x1 = 0.051	798.7
x1 = 0.1008	796.3
x1 = 0.2001	791.7
x1 = 0.2995	787.3
x1 = 0.4016	782.9
x1 = 0.4983	779.1
x1 = 0.5999	775.3
x1 = 0.7013	771.8
x1 = 0.7977	768.7
x1 = 0.8977	765.7
x1 = 0.9507	764.3
